Assay results published in PubChem BioAssay (NCI).
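Exposure lasted 48 hours, with cells grown in 96-well plates and compounds tested at five concentrations. At the GI50, growth is halved. Definition used: TGI = concentration required for complete inhibition of growth.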

What was measured:
Experiment in all cases: NCI anticancer screen, dose series, 48 h
[1] = tested on: MDA-MB-435
[2] = tested on: NCI-H522 lung
[3] = tested on: M14 melanoma
[4] = tested on: SNB-75 CNS
[5] = tested on: OVCAR-8 ovarian
[6] = tested on: OVCAR-5 ovarian
[7] = tested on: HOP-62 NSCLC
[8] = tested on: 786-0 renal
[9] = tested on: NCI/ADR-RES ovarian
[10] = tested on: PC-3 prostate

| SMILES | GI50 [1] | TGI [1] | GI50 [2] | TGI [2] | GI50 [3] | TGI [3] | GI50 [4] | TGI [4] | GI50 [5] | TGI [5] | GI50 [6] | TGI [6] | GI50 [7] | TGI [7] | GI50 [8] | TGI [8] | GI50 [9] | TGI [9] | GI50 [10] | TGI [10] |
| --- | --- | --- | --- | --- | --- | --- | --- | --- | --- | --- | --- | --- | --- | --- | --- | --- | --- | --- | --- | --- |
| NS(=O)(=O)CC1CC[CH-]CC1.[Cl-].[Cl-].[Cl-].[Cl-].[Cl-].[Sb+5].c1ccncc1 | > 100 µM | > 100 µM | > 100 µM | > 100 µM | > 100 µM | > 100 µM | > 100 µM | > 100 µM | > 100 µM | > 100 µM | > 100 µM | > 100 µM | > 100 µM | > 100 µM | > 100 µM | > 100 µM | > 100 µM | > 100 µM | > 100 µM | > 100 µM |
| N#Cc1c(N)nc(N2CCOCC2)c(C#N)c1-c1ccccn1 | > 100 µM | > 100 µM | > 100 µM | > 100 µM | > 100 µM | > 100 µM | > 88.5 µM | > 100 µM | > 100 µM | > 100 µM | > 100 µM | > 100 µM | > 100 µM | > 100 µM | > 100 µM | > 100 µM | > 100 µM | > 100 µM | > 100 µM | > 100 µM |
| CN1CCN(c2ccc(NC(=O)c3cncnc3Nc3ccc(OCc4ccccn4)c(Cl)c3)cc2)CC1 | 0.605 µM | 1.14 µM | 4.48 µM | 10.4 µM | 0.65 µM | 1.4 µM | 4.58 µM | 9.23 µM | 5.4 µM | 15.3 µM | 3.5 µM | 9.11 µM | 4.31 µM | 10.7 µM | 0.763 µM | 1.68 µM | 6.28 µM | 17.1 µM | 3.8 µM | 12 µM |
| Cc1cc(-c2ccccn2)cc(C)c1/C=C/c1cncc(-c2nn[nH]n2)c1 | > 25 µM | > 25 µM | > 25 µM | > 25 µM | > 25 µM | > 25 µM | > 25 µM | > 25 µM | > 25 µM | > 25 µM | > 25 µM | > 25 µM | > 25 µM | > 25 µM | > 25 µM | > 25 µM | > 25 µM | > 25 µM | > 25 µM | > 25 µM |
| C=C1C(=O)O[C@H]2[C@H]1CC/C(COC(=O)C(C)c1ccc(CC(C)C)cc1)=C\CC[C@@]1(C)O[C@@H]21 (stereo not given in full) | 1.49 µM | 2.92 µM | 1.71 µM | 3.4 µM | 0.688 µM | 2.13 µM | 1.68 µM | 3.16 µM | 1.32 µM | 3.51 µM | 1.8 µM | 3.46 µM | 1.88 µM | 4.26 µM | 0.395 µM | 1.65 µM | 1.85 µM | 5.54 µM | 0.891 µM | 2.17 µM |
| CC1=C(C(=O)Nc2cc(Cl)c3[nH]ncc3c2)C(c2ccc(C(F)(F)F)cc2)CC(=O)N1 (stereo not given) | > 23.3 µM | > 25 µM | > 18.7 µM | > 25 µM | > 25 µM | > 25 µM | 3.13 µM | > 25 µM | > 25 µM | > 25 µM | > 25 µM | > 25 µM | 5.07 µM | > 25 µM | 11.7 µM | > 25 µM | > 25 µM | > 25 µM | > 25 µM | > 25 µM |
| C=C(CO)[C@@H]1CC[C@]2(COC3CCCCO3)CC[C@]3(C)[C@H](CC[C@@H]4[C@@]5(C)C=C(C=O)C(=O)C(C)(C)[C@@H]5CC[C@]43C)[C@@H]12 (stereo not given in full) | 0.214 µM | 0.494 µM | 0.205 µM | 0.487 µM | 0.247 µM | 0.672 µM | 0.206 µM | 0.625 µM | 0.356 µM | 1.44 µM | 0.232 µM | 0.853 µM | 1.51 µM | 3.23 µM | 0.185 µM | 0.406 µM | 0.479 µM | 1.8 µM | 0.237 µM | 0.973 µM |
| CC(=O)c1c(CO[N+](=O)[O-])n([O-])c2ccccc2[n+]1=O |  | > 100 µM |  | > 100 µM |  | > 100 µM |  | > 100 µM |  | > 100 µM |  | > 100 µM |  | > 100 µM |  | > 100 µM |  | > 100 µM |  | > 100 µM |
| O=C(N/N=C/c1ccc(O)cc1O)c1cccc(Nc2ccnc(C(F)(F)F)c2)c1 | 0.861 µM | 20.8 µM | 1.27 µM | 22.6 µM | 0.925 µM | 8.5 µM | 11.3 µM | 52.5 µM | 0.716 µM | 32.9 µM | 6.28 µM | 66.8 µM | 0.709 µM | 24.7 µM | 1.14 µM | 10.6 µM | 9.05 µM | > 90.1 µM | 3.01 µM | 34.2 µM |
| Cc1ccc(NC(=O)CSc2nnc3n(Cc4ccccc4)c(=O)c4c(C)c(C(N)=O)sc4n23)cc1 | > 100 µM | > 100 µM | 3.85 µM | > 100 µM | 26 µM | > 100 µM | 5.72 µM | 23.8 µM | > 100 µM | > 100 µM | 64.7 µM | > 100 µM | 21 µM | 56 µM | 10 µM | 49.7 µM | > 100 µM | > 100 µM | > 100 µM | > 100 µM |
| CN(Cc1cc(Br)cc(Br)c1O)Cc1c(O)ccc2ccccc12 |  | 40.3 µM |  | 74.5 µM |  | 41.5 µM |  | 39.1 µM |  | 60 µM |  | 37.1 µM |  | 38.9 µM |  | 36.2 µM |  | > 100 µM |  | 33.5 µM |
| Cc1cc2c(C(N)=O)c(N)n(-c3c(C)ccc(O)c3C)c2nc1C | 1.04 µM | 3.33 µM | 1.48 µM | 5.09 µM | 0.834 µM | 5.83 µM | 1.05 µM | 8.3 µM | 3.12 µM | 18 µM | 3.1 µM | 51.9 µM | 13 µM | > 100 µM | 3.37 µM | > 100 µM | 6.48 µM | 32.7 µM | 32.7 µM | > 100 µM |
| O=C1C2CCN(CC2)C1(CO)CO |  | > 100 µM |  | 33.2 µM |  | 38.8 µM |  | > 81.8 µM |  | 74.7 µM |  | 45.9 µM |  | > 100 µM |  | 44 µM |  | 60 µM |  | > 100 µM |
| O=C1OC(=O)C2CCCC3CCCC1C32 (stereo not given) |  | > 100 µM |  | > 100 µM |  | > 100 µM |  | > 100 µM |  | > 100 µM |  | > 100 µM |  | > 100 µM |  | > 100 µM |  | > 100 µM |  | > 100 µM |
| CC1(N)CCN(c2cnc(-c3cccc(Cl)c3Cl)c(N)n2)CC1 | 28.3 µM | > 100 µM | 14.9 µM | 65.8 µM | 16.4 µM | 33.2 µM | 7.24 µM | 27 µM | 28.2 µM | > 100 µM | 27.7 µM | > 100 µM | 4.28 µM | 61.5 µM | 8.36 µM | 22 µM | 17 µM | > 100 µM | 26.7 µM | > 100 µM |
| CC(=[N-])N1CCC[C@@H](Nc2c3ccccc3nc3ccccc23)C1.[Cl][Pt].[NH-]CCC[NH-] | 4.43 µM | 18.4 µM | 0.0258 µM | 0.165 µM | 3.47 µM | 23.7 µM | 2.72 µM | 10.1 µM | 1.04 µM | > 100 µM | 2.89 µM | 36.4 µM | 1.72 µM | > 100 µM | 3.89 µM | > 24.8 µM | 46 µM | > 100 µM | 3.57 µM | 44.9 µM |
